Measured values from US20210353749A1, “GUANABENZ AS AN ADJUVANT FOR IMMUNOTHERAPY” (UNIVERSITÉ CATHOLIQUE DE LOUVAIN, priority 2018, published 2021).

Tests used:
[1] = system: Mouse TCRP1A CD8+ T cells; assay: CD107 cytotoxicity assay (degranulation assay), mouse T cells; format: cell-based; details: 16 hours
Description: Mouse TCRP1A CD8^+ T cells: P1A-specific (TCRP1A) CD8^+ T cells were isolated from spleens and lymph nodes of TCRP1A mice using anti-mouse CD8a (Ly-2) MicroBeads (Miltenyi Biotec).
CD107 cytotoxicity assay (Degranulation assay): TCRP1A CD8^+ T cells were plated at 50,000 cells per well in a 96 U plate with different concentrations of guanabenz and incubated at 37° C. overnight prior to their use in the assay on the next day. On the day of the assay, the culture supernatant was removed from the cells and the cells were washed once with complete medium to remove the drug. The target cells L1210-P1A-B7.1 were added to the wells at a ratio of 1:1. Control wells containing either only T cells or target cells were also included for each plate. CD107a-APC was added to each well at the same time as addition of the target cells. The plate was then incubated at 37° C. for 90 minutes. At the end of the incubation period the cells were harvested and washed once with PBS. They were stained with anti-mouse CD8-Bv421 antibody for 15 minutes. The cells were then washed and resuspended in PBS and analyzed using FACS Fortessa flow cytometer. Human CD8^+ T cell degranulation was evaluated in a similar way. To induce CD8^+ T cell degranulation, T2 cells loaded with synthetic WT1126-134 peptide (10^6 T2 cells were incubated for 1 hour in 200 μL Optimem medium with 100 μmol/L synthetic peptide at 37° C.) were used as target cells.
(§1) T cells were incubated with guanabenz (10, 20, or 40 μM) for 16 h to 24 h as indicated. Mice received a daily intra-peritoneal injection of guanabenz (5 mg/kg) or vehicle (PBS) from the day of randomization (and the day of ACT when applicable) until the day of sacrifice.
CD107 cytotoxicity assay (Degranulation assay): the assay was carried out as described hereinabove (see Example 1) with different 20 μM guanabenz or different concentrations of alprenolol or sunitinib, as indicated.
T cells were incubated with 20 μM guanabenz for 16 h as indicated.
T cells were incubated with alprenolol (5 or 20 μM) for 16 h as indicated. […]

[2] = system: Mouse TCRP1A CD8+ T cells; assay: IFNγ secretion assay (ELISA), mouse T cells; format: cell-based; details: guanabenz 10, 20 or 40 μM, 16 h to 24 h, co-culture with L1210-P1A-B7.1 target cells; FIG. 1B
Description: Mouse TCRP1A CD8^+ T cells: P1A-specific (TCRP1A) CD8^+ T cells were isolated from spleens and lymph nodes of TCRP1A mice using anti-mouse CD8a (Ly-2) MicroBeads (Miltenyi Biotec). IFNγ secretion assay: CD8^+ T cells were plated at 50,000 cells per well in a 96 U plate with different concentration of guanabenz in full medium supplemented with IL2 and incubated at 37° C. overnight prior to their use in the assay on the next day. On the day of the assay, the culture supernatant was removed from the cells and the cells were washed once with complete medium to remove the drug completely. The target cells L1210-P1A-B7.1 or T2 cells loaded with WT1126-134 peptide were added to the wells at a ratio of 1:1. Control wells containing either only T cells or […] were also included for each plate. The plate was then incubated at 37° C. overnight. At the end of the incubation period the supernatant was collected and the amount of IFNγ was measured by ELISA according to manufacturer's instruction (R&D). T cells were incubated with guanabenz (10, 20, or 40 μM) for 16 h to 24 h as indicated. Mice received a daily intra-peritoneal injection of guanabenz (5 mg/kg) or vehicle (PBS) from the day of randomization (and the day of ACT when applicable) until the day of sacrifice.

[3] = system: T429.11 transplanted tumor; assay: TiRP-derived T429.11 transplanted melanoma model; format: in vivo, mouse
Description: TiRP-derived T429.11 transplanted melanoma model: T429.11 clone was derived from an induced Amela TiRP tumor referred to as T429. It was cloned from the T429 induced melanoma primary tumor line. Two million of T429.11 tumor cells were injected subcutaneously into recipient mice for tumor establishment (Zhu et al, Nat Commun 2017, 10; 8(1):1404).
as §1
The T429.11 transplanted melanoma model was previously shown not to respond to anti-PD-1 and anti-CTLA4 therapy (Zhu et al., Nature communications. Nov. 10 2017; 8(1):1404). T429.11 transplanted tumor bearing mice received daily injections of guanabenz (5 mg/kg, i.p.) or vehicle (PBS, i.p.) from the day when the tumor size was around 1000 mm^3 (day 1) until the day of sacrifice (day 6). […] As shown on FIG. 2B, the decreased tumor growth was accompanied with an increased tumor infiltration of CD8^+ T cells.

[4] = system: IFNγ producing CD8+ T cells; assay: Immunization with ovalbumin; format: in vivo, C57BL/6J mice; details: 100 μg (5 mg/kg) guanabenz with OVA/Alhydrogel, vs non-immunized control
Description: Immunization with Ovalbumin: C57BL/6J mice were immunized once by intraperitoneal (i.p.) injection of 200 ug of OVA protein adsorbed onto Alhydrogel adjuvant 2% (Sigma) These mice were administered 100 μg (5 mg/kg) of guanabenz 2 hours before the immunization and daily after the immunization. […] Intracellular IFNγ staining: one week after the immunization, the blood and spleen of each mouse were collected. Cells derived from the spleen and blood of each immunized mouse were cultured for 1 hour in 96 well U bottomed plates at 37° C. in the presence of 10 μM OVA peptide. Brefeldin A (10 μg/mL) was added to each well and the cells were incubated for an additional 4 hours. The immune response of each mouse was evaluated by measuring the amount of IFNγ producing CD8^+ T cells using antibodies against CD8 and IFNγ. Samples were then examined by FACS Fortessa flow cytometry.

[5] = system: B16F10 melanoma tumors; assay: B16F10 transplanted melanoma model; format: in vivo, mouse; details: guanabenz alone, 2.5 mg/kg i.p. daily from 7 days after inoculation, vs PBS and isotype; FIG. 9
Description: Gender and age matched CD57BL/6 wild-type mice were used in the B16F10 transplanted melanoma model.
Gender-matched, 7-9 weeks old CD57BL/6 wild-type mice were subcutaneously injected with 1 million of B16F10 tumor cells. Mice were randomized based on the tumor size one week after the injection of tumor cells. 7 days after tumor inoculation, daily injections of guanabenz (2.5 mg/kg, i.p.) or vehicle (PBS, i.p.) were administered to the mice. Mice then received 4 injections (intraperitoneally also referred to as i.p.) of a dose of 200 μg/mouse anti-PD-1 antibody (BioXcell, clone RMP1-14) or RatIgG2a isotype (clone 2A3, Bio-X-Cell) at 3-day intervals starting 1 day after guanabenz or vehicle administration.

NC(N)=N/N=C/c1c(Cl)cccc1Cl [guanabenz, 2-[(E)-(2,6-dichlorophenyl)methylideneamino]guanidine]
T cell degranulation (FACS detection of CD107a) ([1]; guanabenz 20 μM, vs control, FIG. 12A): did significantly increase
T cell degranulation (FACS detection of CD107a) ([1]; guanabenz 10, 20 or 40 μM, co-culture with L1210-P1A-B7.1 target cells, FIG. 1A): increased
secretion of IFNγ (ELISA) [2]: increased
tumor growth ([3]; 5 mg/kg i.p. daily from tumor size around 1000 mm^3 (day 1) to day 6, vs vehicle, FIG. 2A): inhibited tumor growth
tumor infiltration of CD8+ T cells (FACS) ([3]; 5 mg/kg i.p. daily, day of sacrifice (day 6), vs vehicle, FIG. 2B): increased
percentage of IFNγ producing CD8+ T cells among total CD8+ T, blood ([4]; blood cells with 10 μM OVA peptide, FIG. 8A): significant increase
percentage of IFNγ producing CD8+ T cells among total CD8+ T, spleen ([4]; spleen cells with 10 μM OVA peptide, FIG. 8B): significant increase
growth of B16F10 melanoma tumors [5]: did significantly reduce
